# Results taken from patent US20220274927A1, “MEMBRANE-ACTIVE ANTI-BACTERIAL COMPOUNDS AND USES THEREOF” (Trustees of Dartmouth College, priority 2019, published 2022).
# Where two headings read alike, the source gives them in different places.
# Columns and labels:
# E. faecalis SMC374 = assay: Antimicrobial susceptibility MIC, E. faecalis SMC374; assay type: cell-based; conditions: Enterococcus faecalis, SMC374
# From the text: (§1) The first set of compounds evaluated were analogs at the C-7 and C-8 positions of the initial quinolone hit DNAC-2 since the other HTS hits identified (data not shown) were substituted at these positions (Table 1). Applicants first explored modification at the C-7 position with a small series of electron-donating and withdrawing substituents. […] However, analogs containing electron donating groups at C-7 including ethyl 7, benzyloxy 8, methoxy 9 and methylthio 10 are weakly active displaying MICs of 320-640 μg/mL indicating electron-donating substituents at C-7 are poorly tolerated. […] The C-8 position was evaluated with trifluoromethyl 4 and trifluoromethoxy 5 containing the optimal C-7 substituents. Both 4 and 5 are equipotent to the corresponding C-7 analogs 2 and 3 indicating some flexibility of the quinolone scaffold.
# (§2) The compounds maintain activity against Staphylococcus epidermidis; however, 31, 111 and 123 all lose considerable potency against Enterococcus faecalis and Enterococcus faecium, which contribute heavily, along with MRSA, to healthcare-associated infections.
# S. aureus (MRSA) = assay: In vitro time-kill assay; assay type: cell-based; conditions: 1× MIC, initial inoculum 10^5 CFU, plating over six hours
# Procedure: FIG. 4 illustrates in vitro time-kill analysis of methicillin resistant Staphylococcus aureus (MRSA). Bacterial killing was monitored by measuring the colony forming unit (CFU) for six hours when treated with compounds 22, 31, 117, and 123 at 1× the minimum inhibitory concentration (MIC) of each compound. The CFU at each time point was determined by plating and then compared to a dimethyl sulfoxide (DMSO) control.
# While the MIC data confirmed that these compounds were at least bacteriostatic, Applicants wanted to test for bactericidal properties of both the aminoquinoline and aminoquinolone scaffolds. […] The kinetics of bacterial killing was assessed in vitro using time-kill assays by incubating compounds at 1× their MIC with an initial inoculum of 10^5 colony forming units (CFU) of S. aureus and removing aliquots at various time points to determine the residual CFU by plating.
# K. pneumonia 7117 = assay: Antimicrobial susceptibility MIC, K. pneumonia 7117; assay type: cell-based; conditions: Klebsiella pneumoniae; K. pneumonia strain 7117
# From the text: as §1, §2
# [1] = tested on: methicillin-resistant S. aureus (FPR3757); assay: MIC against clinical MRSA strain FPR3757 in Mueller-Hinton broth (CLSI); assay type: cell-based, Staphylococcus aureus
# From the text: as §1
# E. coli DHMC-1 = assay: Antimicrobial susceptibility MIC, E. coli DHMC-1; assay type: cell-based; conditions: Escherichia coli, DHMC1; E. coli strain DHMC-1
# From the text: as §1, §2
# S. aureus NIH04008 = assay: Antimicrobial susceptibility MIC, S. aureus NIH04008; assay type: cell-based; conditions: Staphylococcus aureus, NIH04008
# From the text: as §1, §2
# E. faecium ATCC19579 = assay: Antimicrobial susceptibility MIC, E. faecium ATCC19579; assay type: cell-based; conditions: Enterococcus faecium, ATCC19579
# From the text: as §1, §2
# C. albicans = assay: Antimicrobial susceptibility, C. albicans; assay type: cell-based, Candida albicans; conditions: highest concentration tested
# From the text: as §2
# S. aureus MW2 = assay: Antimicrobial susceptibility MIC, S. aureus MW2; assay type: cell-based; conditions: Staphylococcus aureus, MW2
# From the text: as §1, §2
# E. cloacae ND-21 = assay: Antimicrobial susceptibility MIC, E. cloacae ND-21; assay type: cell-based; conditions: Enterobacter cloacae, ND21; E. cloacae strain ND-21
# From the text: as §1, §2
# [2] = tested on: MRSA clinical strain S. aureus FPR3757; assay: Minimum bactericidal concentration (MBC) against S. aureus FPR3757; assay type: cell-based
# [3] = tested on: S. aureus membranes (versus erythrocyte membranes); assay: in vitro; assay type: cell-based, sheep; conditions: sheep
# Procedure: (§3) FIG. 8 illustrates percent hemolysis analysis of sheep erythrocytes. Concentration-dependent hemolysis was measured by monitoring the optical density (OD)540 of PBS-washed sheep erythrocytes. Complete hemolysis (100%) was confirmed by treatment of erythrocytes with Triton X-100. Data points represent the mean±SD of triplicate experiments.
# (§4) The macromolecular synthesis assay, TEM, and FM experiments were all consistent with membrane disruption. […] The high membrane selectivity of the 5-aminoquinolin-4-ones in this assay is impressive and is in accordance with the observed therapeutic index (CC50/MIC).
# [4] = tested on: erythrocyte membranes (versus S. aureus membranes); assay: in vitro; assay type: cell-based, sheep; conditions: sheep; read-out: selectivity for S. aureus membranes over erythrocyte membranes
# Procedure: as §3, §4
# sheep erythrocytes = assay: in vitro; assay type: cell-based
# Procedure: as §3, §4
# [5] = Staphylococcus aureus, MRSA, MRSA clinical strain FPR3757, Mueller-Hinton broth, CLSI guidelines, complete inhibition of observable growth, read-out: MIC
# [6] = MRSA clinical strain FPR3757, Mueller-Hinton broth, CLSI guidelines, complete inhibition of observable growth
molecule,measurement,setting,value
FC(F)(F)c1ccc2c(Nc3ccc(Cl)c(Cl)c3)cc(C(F)(F)F)nc2c1 [Compound 22],MIC,E. faecalis SMC374,0.125 µg/mL
same,time-kill: CFU reduction,S. aureus (MRSA),reduced the CFU below the limit of detection at four to six hours
same,MIC,K. pneumonia 7117,> 4 µg/mL
same,MIC,"[1]; Staphylococcus aureus, MRSA",0.0625 µg/mL
same,MIC,[1]; [5],0.06 µg/mL
same,MIC,E. coli DHMC-1,> 4 µg/mL
same,MIC,S. aureus NIH04008,0.125 µg/mL
same,MIC,E. faecium ATCC19579,0.125 µg/mL
same,MIC against C. albicans as multiple of MIC,C. albicans,>16× × MIC
same,MIC,S. aureus MW2,0.125 µg/mL
same,MIC,E. cloacae ND-21,> 4 µg/mL
same,MBC relative to MIC,[2],MBCs equal to their MIC values
FC(F)(F)c1ccc2c(NC3CCCCC3)cc(C(F)(F)F)nc2c1 [Compound 57],MIC,[1]; [6],>16 µg/mL
same,MIC,"[1]; Staphylococcus aureus, MRSA, MRSA clinical strain FPR3757, Mueller-Hinton broth, CLSI guidelines, complete inhibition of observable growth",> 32 µg/mL
OC1CCCN(c2cc(C(F)(F)F)nc3cc(C(F)(F)F)ccc23)C1 (stereo not drawn) [Compound 58],MIC,[1]; [6],>32 µg/mL
same,MIC,[1]; [5],> 32 µg/mL
FC(F)(F)c1ccc2c(N3CCOCC3)cc(C(F)(F)F)nc2c1 [Compound 59],MIC,[1]; [6],>32 µg/mL
same,MIC,[1]; [5],> 32 µg/mL
FC(F)(F)c1ccc2c(NC[C@@H]3CCCN3)cc(C(F)(F)F)nc2c1 [Compound 60],MIC,[1]; [6],>32 µg/mL
same,MIC,[1]; [5],> 32 µg/mL
FC(F)(F)c1ccc2c(Nc3cccc4[nH]ncc34)cc(C(F)(F)F)nc2c1 [Compound 61],MIC,[1]; [6],>32 µg/mL
same,MIC,[1]; [5],> 32 µg/mL
CN1Cc2cc(Nc3cc(C(F)(F)F)nc4cc(C(F)(F)F)ccc34)ccc2C1=O [Compound 62],MIC,[1]; [6],>32 µg/mL
same,MIC,[1]; [5],> 32 µg/mL
FC(F)(F)c1ccc2c(N3CCc4cccnc43)cc(C(F)(F)F)nc2c1 [Compound 63],MIC,[1]; [6],>32 µg/mL
same,MIC,[1]; [5],> 32 µg/mL
O=C1Cc2cc(Nc3cc(C(F)(F)F)nc4cc(C(F)(F)F)ccc34)ccc2N1 [Compound 64],MIC,[1]; [6],>32 µg/mL
same,MIC,[1]; [5],> 32 µg/mL
O[C@H]1C[C@H]2CC[C@@H](C1)C2Nc1cc(C(F)(F)F)nc2cc(C(F)(F)F)ccc12 (stereo partly drawn) [Compound 65],MIC,[1]; [6],>32 µg/mL
same,MIC,[1]; [5],> 32 µg/mL
FC(F)(F)c1ccc2c(Nc3ccc(Cl)c(Cl)c3)nc(C(F)(F)F)nc2c1 [Compound 89],fold loss of potency (MIC) relative to the comparator,[1]; MRSA FPR3757 MIC ratio,8 fold
same,MIC,[1]; [6],0.5 µg/mL
FC(F)(F)Oc1cccc(Nc2nc(C(F)(F)F)nc3cc(C(F)(F)F)ccc23)c1 [Compound 90],fold increase in potency (MIC) relative to the comparator,[1]; MRSA FPR3757 MIC ratio,8 fold
same,MIC,[1]; [6],1 µg/mL
FC(F)(F)c1ccc(Nc2nc(C(F)(F)F)nc3cc(C(F)(F)F)ccc23)nc1 [Compound 91],fold loss of potency (MIC) relative to the comparator,[1]; MRSA FPR3757 MIC ratio,8 fold
FC(F)(F)c1ccc(Nc2cc(N3CCNCC3)nc3cc(C(F)(F)F)ccc23)nc1 [Compound 102],MIC,[1]; [6],0.5 to 1 µg/mL
FC(F)(F)c1ccc(Nc2cc(N3CCNCC3)c3ccc(C(F)(F)F)cc3n2)nc1 [Compound 103],MIC,[1]; [6],4 to 8 µg/mL
FC(F)(F)c1ccc(Nc2cc(N3CCOCC3)c3ccc(C(F)(F)F)cc3n2)nc1 [Compound 105],MIC,[1]; [6],8 µg/mL
O=c1cc(C(F)(F)F)[nH]c2cc(C(F)(F)F)cc(Nc3ccc(Cl)c(Cl)c3)c12 [Compound 108],MIC,[1]; [5],< 0.06 µg/mL
same,selectivity ratio,[3],> 500
O=c1cc(C(F)(F)F)[nH]c2cc(C(F)(F)F)cc(Nc3ccc(F)c(F)c3)c12 [Compound 109],MIC,[1]; [5],< 0.06 µg/mL
same,selectivity ratio,[3],> 500
O=c1cc(C(F)(F)F)[nH]c2cc(C(F)(F)F)cc(Nc3cccc(OC(F)(F)F)c3)c12 [Compound 110],MIC,[1]; [5],0.06 to 0.12 µg/mL
same,selectivity ratio,[4],> 500
O=c1cc(C(F)(F)F)[nH]c2cc(C(F)(F)F)cc(Nc3ccc(F)cn3)c12 [Compound 112],MIC,[1]; [5],0.12 µg/mL
CN(C)c1ccc(Nc2cc(C(F)(F)F)cc3[nH]c(C(F)(F)F)cc(=O)c23)nc1 [Compound 113],MIC,[1]; [6],2 µg/mL
same,MIC,[1]; [5],1 to 2 µg/mL
O=c1cc(C(F)(F)F)[nH]c2cc(C(F)(F)F)cc(-c3ccc(C(F)(F)F)nn3)c12 [Compound 114],MIC,[1]; [6],1 µg/mL
same,MIC,[1]; [5],1 to 2 µg/mL
CN(C)S(=O)(=O)c1ccc(Nc2cc(C(F)(F)F)cc3[nH]c(C(F)(F)F)cc(=O)c23)nc1 [Compound 115],MIC,[1]; [6],2 µg/mL
O=c1cc(C(F)(F)F)[nH]c2cc(C(F)(F)F)cc(Nc3cccc4[nH]ncc34)c12 [Compound 116],MIC,[1]; [6],2 µg/mL
same,MIC,[1]; [5],1 to 2 µg/mL
O=c1cc(C(F)(F)F)[nH]c2cc(C(F)(F)F)cc(NC3CCC(C(F)(F)F)CC3)c12 (stereo not drawn) [Compound 117],MIC,[1]; [5],< 0.06 µg/mL
same,hemolysis,"sheep erythrocytes; sheep, 32 μg/mL","None of the compounds except 76, displayed any hemolysis"
same,selectivity ratio,[3],> 500
O=c1cc(C(F)(F)F)[nH]c2cc(C(F)(F)F)cc(N3CCOCC3)c12 [Compound 118],MIC,[1]; [5],> 32 µg/mL
O=c1cc(C(F)(F)F)[nH]c2cc(Nc3ccc(Cl)c(Cl)c3)cc(C(F)(F)F)c12 [Compound 119],MIC,[1]; [5],1 µg/mL
O=c1cc(C(F)(F)F)[nH]c2cc(Nc3ccc(F)c(F)c3)cc(C(F)(F)F)c12 [Compound 120],MIC,[1]; [5],4 µg/mL
O=c1cc(C(F)(F)F)[nH]c2cc(Nc3ccc(C(F)(F)F)cn3)cc(C(F)(F)F)c12 [Compound 122],MIC,[1]; [6],4 µg/mL
Triton X-100 [reference compound],lysis (positive control),sheep erythrocytes,100%
